In ChEMBL document CHEMBL5550112, “Development of a fluorescent ligand that can illuminate nuclear G-quadruplexes and modulate oncogene expression” (Bioorg Med Chem, 2024):
pKd: −log10 of the molar value. Active and inactive are the calls of the source. No cut-off for these calls is given here.

Experiments:
Quadruplex DNA [1] = assay: Stabilization of FAM/TAMRA-labelled c-MYC G-quadruplex DNA (unknown origin) assessed as change in melting temperature in presence of duplex DNA by FRET assay; format: nucleic-acid assay
MDA-MB-231 [2] = assay: Induction of cell cycle arrest in human MDA-MB-231 cells assessed as accumulation of cells at G2-M phase at 10 uM incubated for 24 hrs by flow cytometry (reference value: 16.8 %); format: functional
DNA [3] = assay: Binding affinity to Duplex DNA (unknown origin) assessed as increase in fluorescence intensity at 5 uM by fluorescence spectrophotometric analysis; format: nucleic-acid assay
Quadruplex DNA [4] = assay: Binding affinity to 5'-Cy5-labelled c-MYC G-quadruplex DNA (unknown origin) assessed as decrease in Cy5 fluorescence upto 5 uM by fluorescence quenching analysis; format: nucleic-acid assay
DNA [5] = assay: Binding affinity to Duplex DNA (unknown origin) assessed as fluorescence quantum yield by fluorescence spectrophotometric analysis; format: nucleic-acid assay
Quadruplex DNA [6] = assay: Binding affinity to c-MYC G-quadruplex DNA (unknown origin) assessed as dissociation constant by fluorescence spectrophotometric analysis; format: nucleic-acid assay
MDA-MB-231 [7] = assay: Induction of apoptosis in human MDA-MB-231 cells assessed as downregulation of KRAS gene expression at 10 to 20 uM incubated for 24 hrs by RT-PCR analysis; format: functional, cell-based; conditions: dose 10-20 µM
Quadruplex DNA [8] = assay: Binding affinity to G-quadruplex DNA in human MDA-MB-231 cells assessed as increase in fluorescence at 2 uM incubated for 30 mins by DNase I digestion based confocal microscopic analysis; format: cell-based
Quadruplex DNA [9] = assay: Binding affinity to Antiparallel HRAS G-quadruplex DNA (unknown origin) assessed as increase in fluorescence intensity at 5 uM by fluorescence spectrophotometric analysis; format: nucleic-acid assay
Quadruplex DNA [10] = assay: Binding affinity to 3'-Cy5-labelled c-MYC G-quadruplex DNA (unknown origin) assessed as decrease in Cy5 fluorescence upto 5 uM by fluorescence quenching analysis; format: nucleic-acid assay
Quadruplex DNA [11] = assay: Binding affinity to Parallel EAD G-quadruplex DNA (unknown origin) assessed as increase in fluorescence intensity at 5 uM by fluorescence spectrophotometric analysis; format: nucleic-acid assay
MDA-MB-231 [12] = assay: Induction of cell cycle arrest in human MDA-MB-231 cells assessed as accumulation of cells at S phase at 10 uM incubated for 24 hrs by flow cytometry (reference value: 13 %); format: functional
MDA-MB-231 [13] = assay: Inhibition of cell migration in human MDA-MB-231 cells at 10 to 20 uM incubated for 24 hrs by reverse-phase microscopy based scratch wound healing assay; format: functional; conditions: dose 10-20 µM
Quadruplex DNA [14] = assay: Binding affinity to Antiparallel c-KIT G-quadruplex DNA (unknown origin) assessed as increase in fluorescence intensity at 5 uM by fluorescence spectrophotometric analysis; format: nucleic-acid assay
Quadruplex DNA [15] = assay: Binding affinity to G-quadruplex DNA in human MDA-MB-231 cells at 2 uM incubated for 30 mins by Hoechst 33342 staining based confocal microscopic analysis; format: cell-based
Quadruplex DNA [16] = assay: Binding affinity to 5'-Cy5-labelled c-MYC G-quadruplex DNA (unknown origin) assessed as dissociation constant by fluorescence quenching analysis; format: nucleic-acid assay
MDA-MB-231 [17] = assay: Induction of cell cycle arrest in human MDA-MB-231 cells assessed as accumulation of cells at sub-G1 phase at 10 uM incubated for 24 hrs by flow cytometry (reference value: 0.6 %); format: functional
Albumin = Albumin (Bos taurus, UniProt P02769); assay: Binding affinity to bovine serum albumin assessed as increase in fluorescence intensity at 5 uM by fluorescence spectrophotometric analysis; format: cell-free; conditions: cattle
Chain of Albumin (P02769 whole entry): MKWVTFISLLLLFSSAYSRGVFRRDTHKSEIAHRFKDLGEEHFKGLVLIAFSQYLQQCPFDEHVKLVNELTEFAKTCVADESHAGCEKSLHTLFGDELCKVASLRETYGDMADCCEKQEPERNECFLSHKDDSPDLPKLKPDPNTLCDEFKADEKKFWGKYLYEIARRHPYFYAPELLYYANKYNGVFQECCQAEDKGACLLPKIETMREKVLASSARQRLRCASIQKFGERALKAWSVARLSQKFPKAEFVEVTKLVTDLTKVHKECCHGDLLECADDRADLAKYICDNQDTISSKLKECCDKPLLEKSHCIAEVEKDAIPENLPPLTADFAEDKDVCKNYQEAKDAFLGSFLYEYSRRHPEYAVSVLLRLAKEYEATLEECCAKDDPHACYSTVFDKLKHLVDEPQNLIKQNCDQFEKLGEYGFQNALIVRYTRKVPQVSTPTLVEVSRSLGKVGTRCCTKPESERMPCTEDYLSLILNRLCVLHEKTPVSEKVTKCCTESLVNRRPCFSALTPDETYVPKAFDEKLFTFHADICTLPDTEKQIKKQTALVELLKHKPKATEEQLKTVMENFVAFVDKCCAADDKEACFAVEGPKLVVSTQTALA

Quadruplex DNA [18] = assay: Binding affinity to Antiparallel ODN G-quadruplex DNA (unknown origin) assessed as increase in fluorescence intensity at 5 uM by fluorescence spectrophotometric analysis; format: nucleic-acid assay
MDA-MB-231 [19] = assay: Inhibition of colony formation in human MDA-MB-231 cells at 1.5 to 6 uM incubated for 3 days by crystal violet staining based analysis; format: functional, cell-based; conditions: dose 1.5-6 µM, time 3.0 day
Quadruplex DNA [20] = assay: Binding affinity to Parallel c-MYC G-quadruplex DNA (unknown origin) assessed as increase in fluorescence intensity at 5 uM by fluorescence spectrophotometric analysis; format: nucleic-acid assay
HEK-293T = assay: Effect on c-MYC gene expression in human HEK293T cells co-transfected with c-Myc promoter luciferase reporter assessed as decrease in c-MYC expression by measuring reduction in firefly luciferase expression at 10 to 20 uM incubated for 24 hrs by firefly luciferase based microplate analysis; format: functional, cell-based; conditions: dose 10-20 µM
MDA-MB-231 [21] = assay: Induction of cell cycle arrest in human MDA-MB-231 cells assessed as accumulation of cells at G2-M phase at 20 uM incubated for 24 hrs by flow cytometry (reference value: 16.8 %); format: functional
MDA-MB-231 [22] = assay: Induction of apoptosis in human MDA-MB-231 cells assessed as downregulation of KRAS protein expression at 10 to 20 uM incubated for 24 hrs by Western blot analysis; format: functional, cell-based; conditions: dose 10-20 µM
Quadruplex DNA [23] = assay: Binding affinity to c-MYC G-quadruplex DNA (unknown origin) assessed as imino proton signal by NMR spectral analysis; format: nucleic-acid assay
Quadruplex DNA [24] = assay: Binding affinity to Parallel KRAS G-quadruplex DNA (unknown origin) assessed as increase in fluorescence intensity at 5 uM by fluorescence spectrophotometric analysis; format: nucleic-acid assay
MDA-MB-231 [25] = assay: Induction of apoptosis in human MDA-MB-231 cells assessed as downregulation of c-MYC protein expression at 10 to 20 uM incubated for 24 hrs by Western blot analysis; format: functional, cell-based; conditions: dose 10-20 µM
MDA-MB-231 [26] = assay: Induction of apoptosis in human MDA-MB-231 cells assessed as downregulation of PARP protein expression at 10 to 20 uM incubated for 24 hrs by Western blot analysis; format: functional, cell-based; conditions: dose 10-20 µM
MDA-MB-231 [27] = assay: Induction of cell cycle arrest in human MDA-MB-231 cells assessed as accumulation of cells at S phase at 15 uM incubated for 24 hrs by flow cytometry (reference value: 13 %); format: functional
MDA-MB-231 [28] = assay: Induction of apoptosis in human MDA-MB-231 cells assessed as […] protein expression at 10 to 20 uM incubated for 24 hrs by Western blot analysis; format: functional, cell-based; conditions: dose 10-20 µM
Quadruplex DNA [29] = assay: Binding affinity to c-MYC G-quadruplex DNA (unknown origin) assessed as fluorescence quantum yield by fluorescence spectrophotometric analysis; format: nucleic-acid assay
Quadruplex DNA [30] = assay: Binding affinity to c-MYC G-quadruplex DNA (unknown origin) assessed as increase in fluorescence by measuring red shift at 5 uM by fluorescence titration spectra analysis; format: nucleic-acid assay
MDA-MB-231 [31] = assay: Induction of apoptosis in human MDA-MB-231 cells assessed as downregulation of c-MYC gene expression at 10 to 20 uM incubated for 24 hrs by RT-PCR analysis; format: functional, cell-based; conditions: dose 10-20 µM
MDA-MB-231 [32] = assay: Induction of cell cycle arrest in human MDA-MB-231 cells assessed as accumulation of cells at S phase at 20 uM incubated for 24 hrs by flow cytometry (reference value: 13 %); format: functional

ΔTm (Quadruplex DNA [1]): 8.1 °C | Activity (DNA [3]): inactive | Activity (Quadruplex DNA [4]): Active | Activity (DNA [5]): 0.03 | pKd (Quadruplex DNA [6]): 6.15 | Activity (Quadruplex DNA [9]): Active | Activity (Quadruplex DNA [10]): Active | Activity (Quadruplex DNA [11]): Active | Activity (Quadruplex DNA [14]): Active | pKd (Quadruplex DNA [16]): 5.96 | Activity (Albumin): Not Active | Activity (Quadruplex DNA [18]): Active | Activity (Quadruplex DNA [20]): Active | Activity (Quadruplex DNA [23]): Active | Activity (Quadruplex DNA [24]): Active | Activity (Quadruplex DNA [29]): 0.3 | Activity (Quadruplex DNA [30]): Active
Compound: CCn1c2ccccc2c2cc(/C=C/c3sc4ccccc4[n+]3C)ccc21.[I-]
Activity (MDA-MB-231 [2]): 16% | Activity (MDA-MB-231 [7]): Active | Activity (Quadruplex DNA [8]): inactive | Activity (MDA-MB-231 [12]): 14.5% | inhibition (MDA-MB-231 [13]): Active | Activity (Quadruplex DNA [15]): Active | Activity (MDA-MB-231 [17]): 3% | inhibition (MDA-MB-231 [19]): Active | Activity (HEK-293T): Active | Activity (MDA-MB-231 [21]): 6.4% | Activity (MDA-MB-231 [22]): Active | Activity (MDA-MB-231 [25]): Active | Activity (MDA-MB-231 [26]): Active | Activity (MDA-MB-231 [27]): 10.2% | Activity (MDA-MB-231 [28]): Active | Activity (MDA-MB-231 [31]): Active | Activity (MDA-MB-231 [32]): 8.6%
